# Earlier results, collected in patent US20050186294A1 (priority 1999, published 2005).
# Read-outs that look alike come from different tables or passages of the source.
# Key:
# [1] = larger molecular weight molecules such as Testosterone
# 5 Phosphodiesterase = 5 Phosphodiesterase (Homo sapiens, UniProt O76074); conditions: in vitro, similar Molar concentrations
# penile erection = conditions: oral, men
# [2] = after oral arginine supplementation (6 g)
smiles,measurement,setting,value
CC1CCC(C(C)C)C(O)C1 (stereo not drawn) [Menthol],increase of membrane permeability,[1],2-4 times
CCCc1nn(C)c2c(=O)[nH]c(-c3cc(S(=O)(=O)N4CCN(C)CC4)ccc3OCC)nc12 [sildenafil],inhibition of 5 Phosphodiesterase activity,5 Phosphodiesterase,85%
same,effectiveness to create a penile erection,penile erection; after first use,54%
same,effectiveness to create a penile erection,penile erection; by the eighth use,86%
N=C(N)NCCC[C@H](N)C(=O)O [L-arginine],detectable cGMP excretion rates in urine,cGMP; after infusion of 30 g and 6 g,rise in detectable cGMP excretion rates in urine
same,increases in detectable cGMP,cGMP; [2],not statistically significant
same,L-arginine level in the blood,after infusion of 6 g,822 nM/ml
same,L-arginine level in the blood,after infusion of 30 g,6223 nmol/mL
same,blood concentration,[2],310 µM
